Measurements reported in publication PMC8675869, “Oral Efficacy of a Diselenide Compound Loaded in Nanostructured Lipid Carriers in a Murine Model of Visceral Leishmaniasis” (ACS Infectious Diseases, 2021).
Values after ≈ are worked out from the molar mass of the structure shown.

Columns and labels:
THP-1 cells = conditions: read-out: THP-1 cells CC50; concentration that kills cells by 50%; cited from earlier work
[1] = Single-dose pharmacokinetic study in mice (plasma Se); conditions: BALB/c, mouse, in vivo, ip, 4 mg/kg
Procedure: A single-dose pharmacokinetic study of 2h, 2m, 2h-NLC, and 2m-NLC were evaluated in mice after i.p. (free drugs) or oral administration (free drugs and loaded into NLC). The dose (4 mg/kg) was selected taking into account LD50 obtained after i.p. administration of the compounds. Blood was collected from the submandibular plexus at different time points: 0, 0.25, 0.5, 1, 2, 4, 8, 24, and 48 h. Collected whole blood samples were centrifuged at 3000 × g for 10 min at 4 °C. The obtained plasma samples were stored at −80 °C until quantification of the drug by graphite atomic absorption spectroscopy, as described in the Supporting Information. Experiments were carried out in triplicate for each compound and formulation. Pharmacokinetic parameters were estimated by fitting the experimental data to a noncompartimental model (NCA) using PKsolver Excel program.[62] The analyzed parameters were as follows: Area under concentration–time curve (AUC), maximum serum concentration (Cmax), clearance (Cl), time of maximum concentration (tmax), mean residence time (MRT), and product half-life (t1/2). The extraction rate (ER) was calculated as the ratio between systemic blood clearance and mouse hepatic blood flow (considered 90 mL·min^–1·kg^–1). […]

[2] = Solubility in fasted simulated intestinal fluid (FaSSIF); type: physicochemical; conditions: thermodynamic from solid, fasted simulated intestinal fluid pH 6.5, 4 h, r.t., as Se content, read-out: solubility in SSIF
Procedure: This experiment determines the solubility of a solid compound in fasted simulated intestinal fluid (FaSSIF) at pH 6.5 after 4 h of equilibration at r.t.[58] In brief, 1 mL of FaSSIF (3 mM sodium taurocholate and 0.75 mM lecithin in sodium phosphate buffer at pH 6.5) was added to 2 mg of the solid compounds. The resulting suspensions were shaken at 900 rpm for 4 h at r.t. Then, they were centrifuged at 12,600 × g for 10 min. The amount of selenocompounds, as selenium (Se) content, remaining in the supernatant was quantified by graphite atomic absorption spectrometry, as described in the Supporting Information. Results are expressed as mean ± SD of three replicates.

[3] = Ex vivo intestinal permeability (Ussing chamber); type: in vitro ADME, Wistar rats; conditions: rat jejunum, mucosal-to-serosal, as Se content; for Papp at 2 h, 5 mM: female, Wistar, rat, pH 7.4, free compounds; for intestinal permeability Papp: free compounds
Procedure: Intestinal permeation experiments were performed by using the Ussing chamber method as previously described.[59] Wistar female rats were fasted for 16 h with free access to water before the experiment. Rats were anesthetized with isoflurane and sacrificed by cervical dislocation. Jejunum was aseptically extracted, excised in 2 cm segments avoiding Peyer’s patches, and placed in cold 0.9% NaCl solution. Jejunum segments were anchored into the Ussing chambers. All experiments were realized from the apical side or donor compartment (DC) to the basolateral or receptor (RC) direction. For 2h and 2m compounds experiments, 5 mL of deionized water at pH 7.4 containing 4% (w/v) D-α-tocopherol polyethylene glycol 1000 succinate, and 5% (w/v) PEG 400 was added to both compartments to ensure sink conditions. In the case of NLC, 5 mL of PBS was used in both compartments. Chambers were continuously oxygenated and maintained at 37 °C. After 10 min of preincubation, the solution in the DC was replaced by 5 mL of either 2h and 2m solutions (final concentration of 5 mM) or their lyophilized NLC diluted in PBS at a 1 mM (in selenocompound concentration). Samples of 500 μL were collected from the RC every 20 min up to 2 h and replaced by an equal volume of the RC solution. Samples were frozen at −20 °C until analysis. The membrane integrity was evaluated by the addition of yellow lucifer to the DC and the determination of its fluorescence at the end of the experiment.[60] Experiments were carried out in triplicate for each compound and formulation. Se content in the RC was analyzed by flame atomic absorption spectrometry, as explained in the Supporting Information. The apparent permeability coefficient per unit membrane surface area (Papp (cm/s)), expressed as mean ± SD, was calculated according to eq 3 [drawing 3] 3 where dQ/dt was the steady-flux (mg/s), C0 was the initial compound concentration in the DC (mg/mL), and A was the surface area of the membrane (cm^2). It has been stablished that, in general, compounds with Papp > 1 × 10^–6 cm/s are well-absorbed in the human intestinal tract whereas Papp < 1 × 10^–6 cm/s are correlated with poor absorption.[32]

[4] = In vitro hepatic microsomal metabolism; type: in vitro ADME, BALB/c mice; conditions: BALB/c; mouse liver microsomes 0.5 mg protein/mL, 500 μM compound, NADPH, 37 °C; read-out: microsomal stability t1/2 (converted)
Procedure: Liver microsomes were isolated as previously described with minor modifications.[57] Mouse livers were removed and rinsed with 0.9% (w/v) NaCl solution. Then, livers were homogenized in ice-cold 0.25 M sucrose in 0.1 M PBS (pH 7.5). After 20 min of centrifugation at 9000 × g, the supernatant was ultracentrifuged at 100,000 × g for 1 h at 4 °C. The obtained microsome pellet was washed with 0.05 M PBS (pH 7.5) followed by another ultracentrifugation at 100,000 × g for 1 h at 4 °C. Microsomes were resuspended in 20% glycerol–0.1 M PBS and stored at −80 °C until use. Protein concentration was measured by microBCA kit (Thermo Scientific). […] Controls without hepatic cofactor and blanks without compounds were also analyzed. Metabolism was determined at 0, 0.1, 0.25, 0.5, 1, 1.5, and 2 h by the addition of an equal volume of ice-cold ACN, and samples were centrifuged at 9000 × g for 10 min. Supernatants were stored at −20 °C until high liquid performance chromatography (HPLC) quantification analysis at 290 nm, as described in the Supporting Information. Results are expressed as mean ± SD of at least three replicates. […] The rate of microsomal intrinsic clearance (Clint,micr, mL·min^–1·kg^–1) was then calculated following eq 1([27]) [drawing 1] […]
The calculated Clint,micr was used for the prediction of in vivo intrinsic hepatic clearance (Clint) using eq 2 and suitable scaling factors[27] […]

[5] = target: trypanothione reductase (TR); parameters: method as in PMID 33046492; conditions: concentration that inhibits TR activity by 50%; read-out: TR inhibition IC50; cited from earlier work
[6] = cited from earlier work
[7] = Acute toxicity, Up-and-Down procedure (OECD 425), i.p.; conditions: mouse, in vivo, ip, 17.5 mg/kg, mice
Procedure: Acute toxicity was carried out following the Up-and-Down procedure proposed by the OECD 425.[61] Three mice were treated with a dose of 17.5 mg/kg of each compound, 2h and 2m, administered by i.p. route. If all the mice died, 1/3 of the dose was administered to other new three mice. If all of them survived, the dose was tripled. If one or two of them died, the same dose was administered to one or two mice more. Both compounds were solubilized in PEG 400:H2O:D-α-tocopherol polyethylene glycol 1000 succinate (60:38.4:1.6, v/v/w).

[8] = Solubilizing capability of Transcutol for the compounds; type: physicochemical; conditions: Transcutol as solvent
[9] = system: Salmonella typhimurium (TA1535/pSK1002 strain); experiment: SOS/UMU genotoxicity test; type: cell-based; conditions: with or without metabolic activation, highest concentration 1 mg/mL
Procedure: Salmonella typhimurium (TA1535/pSK1002 strain) (DSMZ, Germany) was employed to determine the genotoxic potential of the compounds 2h and 2m and some of their possible metabolites, as previously described.[56] Bacteria were exposed to different concentrations of compounds either with or without metabolic activation (S9 mix, Mutazyme) to determine the bacterial survival percentage, calculated by measuring the absorbance at 600 nm. Afterward, the β-galactosidase activity was conducted using a colorimetric method employing o-nitrophenyl-β-D-galactopiranoside (ONPG) as a substrate. Genotoxicity activity was measured in terms of β-galactosidase activity calculating an induction factor (IF) relative to the negative control (i.e., bacteria exposed to the solvent) and positive controls (4-nitroquinoline for normal treatments and 2-aminoantracen for S9 metabolic activated treatments). A compound was considered genotoxic for IF values ≥2 at noncytotoxic concentration (i.e., bacterial survival ≥80%). The experiment was considered valid for positive controls if IF ≥ 2.

[10] = In vitro release from NLC in SGF and SIF; type: physicochemical; conditions: cumulative Se release
Procedure: The release studies of compounds 2h and 2m were performed at 37 °C using simulated gastric fluid (SGF, pH 1.2, pepsin 0.32% (w/v)) and simulated intestinal fluid (SIF, pH 6.8, pancreatin 1% (w/v)) with 2% v/v PEG 400, 5% w/v D-α-tocopherol polyethylene glycol 1000 succinate and 2.5% v/v DMSO added to ensure sink conditions. The dialysis membranes (with 100 kDa pore size) were filled with 30 mg of lyophilized formulations either 2h-NLC or 2m-NLC (corresponding to around 60 μg of the selenocompounds) dispersed in 1 mL of distilled water. The loaded dialysis membranes were placed into a beaker containing 25 mL of SGF. The simulated fluid was kept under magnetic stirring at 150 rpm, and at fixed times 0.250 mL samples were withdrawn and replaced with an equal volume of SGF. Two hours after the incubation in SGF, the device was transferred to another beaker containing 25 mL of SIF magnetically stirred at 150 rpm. As previously, at fixed times, samples were withdrawn and replaced with free SIF. The in vitro release study finished 24 h after the experiment began. The amount of Se released from the nanocarriers was determined by graphite atomic absorption spectrometry, as described in the Supporting Information. Results are expressed as mean ± SD of at least three replicates.

[11] = parameters: method as in PMID 25016034; conditions: daily oral administration for 90 days; cited from earlier work
[12] = parameters: method as in PMID 20643750; conditions: mice, administration for 13 weeks; cited from earlier work
[13] = after 4 h of incubation in SIF (following 2 h SGF)
[14] = first 2 h of incubation in SGF, 37 °C, sink conditions

| Compound | CC50 (THP-1 cells) [µM] | ER (extraction ratio) [1] | solubility at 4 h [2] [µg/mL] | Papp at 2 h, 5 mM [3] [×10⁻⁶ cm/s] | intestinal permeability Papp [3] | half-life at 500 μM [4] [h] | IC50 [5] [µM] | logP [6] | LD50 [7] [mg/kg] | amount of compound dissolved in Transcutol [8] | genotoxicity (SOS/UMU test) [9] | compound released from NLC [10, 13] | compound released from NLC [10, 14] [%] | no observed adverse effect level (NOAEL) [11] [mg/kg/day] | NOAEL [12] [g/kg/day] |
| --- | --- | --- | --- | --- | --- | --- | --- | --- | --- | --- | --- | --- | --- | --- | --- |
| O=C(Nc1ccc([Se][Se]c2ccc(NC(=O)c3ccco3)cc2)cc1)c1ccco1 [2h, N,N′-(4,4′-diselanediylbis(4,1-phenylene))bis-furan-2-carboxamide] | > 50 | <0.3 | 3.2 ± 1.7 (≈ 6.03 µM) | ~0.717 | 7.2 ± 2.6 (×10^–7) cm/s | 1.7 | 14 ± 0.9 | 1 | 17.5 | up to 6 mg of compound in 0.4 g | did not produce cytotoxicity and DNA damage | around 13% | 5.5 ± 3.1 | – | – |
| O=C(Nc1ccc([Se][Se]c2ccc(NC(=O)c3cccc4ccccc34)cc2)cc1)c1cccc2ccccc12 [2m, N,N′-(4,4′-diselanediylbis(4,1-phenylene))bisnaphthamide] | > 50 | – | 2.5 ± 0.5 (≈ 3.84 µM) | ~0.591 | 5.9 ± 1.1 (×10^–7) cm/s | 1.2 | 5.5 ± 0.1 | 5 | 17.5 | up to 6 mg of compound in 0.4 g | did not produce cytotoxicity and DNA damage | ~10% | 3.9 ± 0.3 | – | – |
| CCOCCOCCO [Transcutol, diethylene glycol monoethyl ether] | – | – | – | – | – | – | – | – | – | – | – | – | – | 850 to 1000 | – |
| Polysorbate 80 [Tween 80] | – | – | – | – | – | – | – | – | – | – | – | – | – | – | 10 |
